Assay: recombinant UMI read abundance after kanamycin selection (control-corrected) (log10(CPM+1)); higher = more efficient recombination; extreme values may be limits of the assay; sequences stand for … in AGTGCAGAGAAAATCGGCCAGTTTTCTCTGCCTGCAGTCCGCATGCCGTGGGACCCCTTGGGTTCTAACCTGTTGCCTAGATTTATGCAGCGGACTGCCTTTCTCCCAAAGTGATAAACCGG…AGGTTGGTTTCACT; site = the 11-nt donor
Procedure, shortened: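 Reported values are log10(CPM+1) from a pooled Escherichia coli screen of donor and donor-binding-loop pairs for the IS621 bridge recombinase. Selection used IPTG (0.07 mM) plus kanamycin, against unselected plating, each in two replicates. Recombinant UMIs were amplified across the donor–target junction, sequenced, converted to CPM, averaged over replicates and scaled by control-derived factors.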
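Note: IS621 bridge recombinase in Escherichia coli cells against a fixed T5 target plasmid.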

Sequence: CGAATATCATGGACCGGTTTTCCCGGTAATCCGTATTTGCG (site CGAATATCTCG)
- recombinant UMI read abundance (log10): 2.99

Sequence: CGAATCGCATGGACCGGTTTTCCCGGTAATCCGTATTTGAT (site CGAATCGCTAT)
- recombinant UMI read abundance (log10): 2.72

Sequence: CGAATGGCATGGACCGGTTTTCCCGGTAATCCGTATTTGCG (site GAGGGCACTAT)
- recombinant UMI read abundance (log10): 0.0326

Sequence: CGACCAACATGGACCGGTTTTCCCGGTAATCCGTATTTGCT (site CGACCAACTAG)
- recombinant UMI read abundance (log10): 2.28

Sequence: CGACCAACATGGACCGGTTTTCCCGGTAATCCGTATTTGCT (site CGATCATCTAG)
- recombinant UMI read abundance (log10): 0

Sequence: CGACCCGCATGGACCGGTTTTCCCGGTAATCCGTATTTGCG (site CGACCCGCTCG)
- recombinant UMI read abundance (log10): 0.0234

Sequence: CGACGACCATGGACCGGTTTTCCCGGTAATCCGTATTTGAA (site CGACGACCTTT)
- recombinant UMI read abundance (log10): 0.00772

Sequence: CGACGGTCATGGACCGGTTTTCCCGGTAATCCGTATTTGCC (site TATGCCGCTAT)
- recombinant UMI read abundance (log10): 0

Sequence: CGACTAACATGGACCGGTTTTCCCGGTAATCCGTATTTGGA (site CAACTAACTTC)
- recombinant UMI read abundance (log10): 1.44

Sequence: CGACTAACATGGACCGGTTTTCCCGGTAATCCGTATTTGGA (site CCACTAACTTC)
- recombinant UMI read abundance (log10): 0.226

Sequence: CGACTAACATGGACCGGTTTTCCCGGTAATCCGTATTTGGA (site CGACTAACTTC)
- recombinant UMI read abundance (log10): 1.74

Sequence: CGACTAACATGGACCGGTTTTCCCGGTAATCCGTATTTGGA (site CTACTAACTTC)
- recombinant UMI read abundance (log10): 0.554

Sequence: CGAGAACCATGGACCGGTTTTCCCGGTAATCCGTATTTGGG (site CGAGAACCTCC)
- recombinant UMI read abundance (log10): 0

Sequence: CGAGAACCATGGACCGGTTTTCCCGGTAATCCGTATTTGGG (site CGAGCACCTCC)
- recombinant UMI read abundance (log10): 0.00673

Sequence: CGAGAACCATGGACCGGTTTTCCCGGTAATCCGTATTTGGG (site CGAGGACCTCC)
- recombinant UMI read abundance (log10): 0.0198

Sequence: CGAGAACCATGGACCGGTTTTCCCGGTAATCCGTATTTGGG (site CGAGTACCTCC)
- recombinant UMI read abundance (log10): 0.00635

Sequence: CGAGAAGCATGGACCGGTTTTCCCGGTAATCCGTATTTGCT (site CGAGAAGCTAG)
- recombinant UMI read abundance (log10): 2.17

Sequence: CGAGAAGCATGGACCGGTTTTCCCGGTAATCCGTATTTGTC (site CGAGAAGCTGA)
- recombinant UMI read abundance (log10): 2.25

Sequence: CGAGAGTCATGGACCGGTTTTCCCGGTAATCCGTATTTGCC (site CGAGAGTCTGG)
- recombinant UMI read abundance (log10): 3.37

Sequence: CGAGAGTCATGGACCGGTTTTCCCGGTAATCCGTATTTGCC (site CGCGAGTCTGG)
- recombinant UMI read abundance (log10): 0

Sequence: CGAGAGTCATGGACCGGTTTTCCCGGTAATCCGTATTTGCC (site CGGGAGTCTGG)
- recombinant UMI read abundance (log10): 1.46

Sequence: CGAGAGTCATGGACCGGTTTTCCCGGTAATCCGTATTTGCC (site CGTGAGTCTGG)
- recombinant UMI read abundance (log10): 2.4

Sequence: CGAGCGACATGGACCGGTTTTCCCGGTAATCCGTATTTGTA (site CGAGCGACTTA)
- recombinant UMI read abundance (log10): 2.3

Sequence: CGAGGACCATGGACCGGTTTTCCCGGTAATCCGTATTTGAA (site CGAGGACCTTT)
- recombinant UMI read abundance (log10): 0.0106

Sequence: CGAGGACCATGGACCGGTTTTCCCGGTAATCCGTATTTGGC (site CGAGGACCTAC)
- recombinant UMI read abundance (log10): 0.0204

Sequence: CGAGGACCATGGACCGGTTTTCCCGGTAATCCGTATTTGGC (site CGAGGACCTCC)
- recombinant UMI read abundance (log10): 0.0246

Sequence: CGAGGACCATGGACCGGTTTTCCCGGTAATCCGTATTTGGC (site CGAGGACCTGC)
- recombinant UMI read abundance (log10): 0

Sequence: CGAGGACCATGGACCGGTTTTCCCGGTAATCCGTATTTGGC (site CGAGGACCTTC)
- recombinant UMI read abundance (log10): 0.013

Sequence: CGAGGCCCATGGACCGGTTTTCCCGGTAATCCGTATTTGGG (site CGAGGACCTCC)
- recombinant UMI read abundance (log10): 0.0197

Sequence: CGAGGCCCATGGACCGGTTTTCCCGGTAATCCGTATTTGGG (site CGAGGCCCTCC)
- recombinant UMI read abundance (log10): 0.0196

Sequence: CGAGGCCCATGGACCGGTTTTCCCGGTAATCCGTATTTGGG (site CGAGGGCCTCC)
- recombinant UMI read abundance (log10): 0.016

Sequence: CGAGGCCCATGGACCGGTTTTCCCGGTAATCCGTATTTGGG (site CGAGGTCCTCC)
- recombinant UMI read abundance (log10): 0.00542

Sequence: CGAGTATCATGGACCGGTTTTCCCGGTAATCCGTATTTGCA (site ACAGTATCTTG)
- recombinant UMI read abundance (log10): 2.08

Sequence: CGAGTATCATGGACCGGTTTTCCCGGTAATCCGTATTTGCA (site CGAGTATCTTG)
- recombinant UMI read abundance (log10): 3

Sequence: CGAGTCCCATGGACCGGTTTTCCCGGTAATCCGTATTTGTG (site GTCAGTTCTAG)
- recombinant UMI read abundance (log10): 0

Sequence: CGATAAACATGGACCGGTTTTCCCGGTAATCCGTATTTGCT (site CGATAAACTAG)
- recombinant UMI read abundance (log10): 2.83

Sequence: CGATAAACATGGACCGGTTTTCCCGGTAATCCGTATTTGCT (site CGATCATCTAG)
- recombinant UMI read abundance (log10): 0

Sequence: CGATACACATGGACCGGTTTTCCCGGTAATCCGTATTTGCT (site CGATACACTAG)
- recombinant UMI read abundance (log10): 2.54

Sequence: CGATAGTCATGGACCGGTTTTCCCGGTAATCCGTATTTGCC (site CGATAGTCTGG)
- recombinant UMI read abundance (log10): 2.66

Sequence: CGATCAACATGGACCGGTTTTCCCGGTAATCCGTATTTGCG (site CGATCAACTCG)
- recombinant UMI read abundance (log10): 0.894

Sequence: CGATCAACATGGACCGGTTTTCCCGGTAATCCGTATTTGCG (site CGATCATCTAG)
- recombinant UMI read abundance (log10): 0

Sequence: CGATCAGCATGGACCGGTTTTCCCGGTAATCCGTATTTGTT (site CGATCAGCTAA)
- recombinant UMI read abundance (log10): 1.59

Sequence: CGATCAGCATGGACCGGTTTTCCCGGTAATCCGTATTTGTT (site CGATCATCTAG)
- recombinant UMI read abundance (log10): 0

Sequence: CGATCCTCATGGACCGGTTTTCCCGGTAATCCGTATTTGCG (site CGATCATCTAG)
- recombinant UMI read abundance (log10): 0

Sequence: CGATCCTCATGGACCGGTTTTCCCGGTAATCCGTATTTGCG (site CGATCCTCTCG)
- recombinant UMI read abundance (log10): 2.64

Sequence: CGATCCTCATGGACCGGTTTTCCCGGTAATCCGTATTTGCT (site CGATCATCTAG)
- recombinant UMI read abundance (log10): 0

Sequence: CGATCCTCATGGACCGGTTTTCCCGGTAATCCGTATTTGCT (site CGATCCTCTAG)
- recombinant UMI read abundance (log10): 2.82

Sequence: CGATCCTCATGGACCGGTTTTCCCGGTAATCCGTATTTGCT (site CGATCGTCTAG)
- recombinant UMI read abundance (log10): 0

Sequence: CGATCCTCATGGACCGGTTTTCCCGGTAATCCGTATTTGCT (site CGATCTTCTAG)
- recombinant UMI read abundance (log10): 0

Sequence: CGATCGACATGGACCGGTTTTCCCGGTAATCCGTATTTGAT (site CGATCGACTAA)
- recombinant UMI read abundance (log10): 0.0179

Sequence: CGATCGACATGGACCGGTTTTCCCGGTAATCCGTATTTGAT (site CGATCGACTAC)
- recombinant UMI read abundance (log10): 0

Sequence: CGATCGACATGGACCGGTTTTCCCGGTAATCCGTATTTGAT (site CGATCGACTAG)
- recombinant UMI read abundance (log10): 0

Sequence: CGATCGACATGGACCGGTTTTCCCGGTAATCCGTATTTGAT (site CGATCGACTAT)
- recombinant UMI read abundance (log10): 0.807

Sequence: CGATCGCCATGGACCGGTTTTCCCGGTAATCCGTATTTGTT (site CGATCGACTAA)
- recombinant UMI read abundance (log10): 0.0236

Sequence: CGATCGCCATGGACCGGTTTTCCCGGTAATCCGTATTTGTT (site CGATCGCCTAA)
- recombinant UMI read abundance (log10): 0.142

Sequence: CGATCGCCATGGACCGGTTTTCCCGGTAATCCGTATTTGTT (site CGATCGGCTAA)
- recombinant UMI read abundance (log10): 0

Sequence: CGATCGCCATGGACCGGTTTTCCCGGTAATCCGTATTTGTT (site CGATCGTCTAA)
- recombinant UMI read abundance (log10): 1.46

Sequence: CGATCGTCATGGACCGGTTTTCCCGGTAATCCGTATTTGCT (site CGATCATCTAG)
- recombinant UMI read abundance (log10): 2.15

Sequence: CGATCGTCATGGACCGGTTTTCCCGGTAATCCGTATTTGCT (site CGATCCTCTAG)
- recombinant UMI read abundance (log10): 0

Sequence: CGATCGTCATGGACCGGTTTTCCCGGTAATCCGTATTTGCT (site CGATCGTCTAG)
- recombinant UMI read abundance (log10): 2.46

Sequence: CGATCGTCATGGACCGGTTTTCCCGGTAATCCGTATTTGCT (site CGATCTTCTAG)
- recombinant UMI read abundance (log10): 0

Sequence: CGATCTACATGGACCGGTTTTCCCGGTAATCCGTATTTGTT (site CGATCAACTAA)
- recombinant UMI read abundance (log10): 0.012

Sequence: CGATCTACATGGACCGGTTTTCCCGGTAATCCGTATTTGTT (site CGATCCACTAA)
- recombinant UMI read abundance (log10): 0.0103

Sequence: CGATCTACATGGACCGGTTTTCCCGGTAATCCGTATTTGTT (site CGATCGACTAA)
- recombinant UMI read abundance (log10): 0.00912

Sequence: CGATCTACATGGACCGGTTTTCCCGGTAATCCGTATTTGTT (site CGATCTACTAA)
- recombinant UMI read abundance (log10): 0.246

Sequence: CGATCTGCATGGACCGGTTTTCCCGGTAATCCGTATTTGCT (site CGATCATCTAG)
- recombinant UMI read abundance (log10): 0

Sequence: CGATCTGCATGGACCGGTTTTCCCGGTAATCCGTATTTGCT (site CGATCTGCTAG)
- recombinant UMI read abundance (log10): 1.72

Sequence: CGATGACCATGGACCGGTTTTCCCGGTAATCCGTATTTGCT (site CGATCATCTAG)
- recombinant UMI read abundance (log10): 0

Sequence: CGATGACCATGGACCGGTTTTCCCGGTAATCCGTATTTGCT (site CGATGACCTAG)
- recombinant UMI read abundance (log10): 0

Sequence: CGATGATCATGGACCGGTTTTCCCGGTAATCCGTATTTGAA (site CGATGATCTTT)
- recombinant UMI read abundance (log10): 2.86

Sequence: CGATTAGCATGGACCGGTTTTCCCGGTAATCCGTATTTGCT (site CGATCATCTAG)
- recombinant UMI read abundance (log10): 0

Sequence: CGATTAGCATGGACCGGTTTTCCCGGTAATCCGTATTTGCT (site CGATTAGCTAG)
- recombinant UMI read abundance (log10): 0

Sequence: CGATTATCATGGACCGGTTTTCCCGGTAATCCGTATTTGAC (site CGATTATCTGT)
- recombinant UMI read abundance (log10): 1.98

Sequence: CGATTATCATGGACCGGTTTTCCCGGTAATCCGTATTTGAC (site CTAGTATCTGT)
- recombinant UMI read abundance (log10): 1.07

Sequence: CGATTATCATGGACCGGTTTTCCCGGTAATCCGTATTTGCA (site CGATCATCTAG)
- recombinant UMI read abundance (log10): 0

From the supplement of paper PMC11208160
